The target in one assay is Pim-1 (Homo sapiens (Human), UniProt P11309). As to the kind of experiment: Pim-1 kinase assay (Pim enzyme assays, Example A). It counts as biochemical. Conditions: 1 mM ATP, BAD peptide substrate; read-out: PIM1 IC50. The protocol: (§1) Pim-1 and Pim-3 kinase assays-20 μL reactions were run in white 384 well polystyrene plates dotted with 0.8 μL compound/DMSO in the assay buffer (50 mM Tris, pH 7.5, 0.01% Tween-20, 5 mM mgCl2, 0.01% BSA, 5 mM DTT), containing 0.05 μM Biotin-labeled BAD peptide substrate (AnaSpec 62269), 1 mM ATP, and 2.5 pM (Pim-1, Invitrogen PV3503) or 1.25 pM (Pim-3, Millipore 14-738) enzyme for 1 h at 25° C. Reactions were stopped by addition of 10 μL STOP Buffer (150 mM Tris, pH=7.5, 150 mM NaCl, 75 mM EDTA, 0.01% Tween-20, 0.3% BSA,) supplemented with Phospho-Bad (Ser112) Antibody (Cell Signaling 9291) diluted 666-fold, and Streptavidin donor beads (PerkinElmer 6760002) along with Protein-A acceptor beads (PerkinElmer 6760137) at 15 μg/mL each. Supplementation of the STOP buffer with beads and stopping the reactions were done under reduced light. Prior to the stopping reactions STOP buffer with beads was preincubated for 1 h in the dark at room temperature. After stopping the reactions, plates were incubated for 1 h in the dark at room temperature before reading on a PHERAstar FS plate reader (BMG Labtech) under reduced light.
Sequence of Pim-1 (P11309 whole entry): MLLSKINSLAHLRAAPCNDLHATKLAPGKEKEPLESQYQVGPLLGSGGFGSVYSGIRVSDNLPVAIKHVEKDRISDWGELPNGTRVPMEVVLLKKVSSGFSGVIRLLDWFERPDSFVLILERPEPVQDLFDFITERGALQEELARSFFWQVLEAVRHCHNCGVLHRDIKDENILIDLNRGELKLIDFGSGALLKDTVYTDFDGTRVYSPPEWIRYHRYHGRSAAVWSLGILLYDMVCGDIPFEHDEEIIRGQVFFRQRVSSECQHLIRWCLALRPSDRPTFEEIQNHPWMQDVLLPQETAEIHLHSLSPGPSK

The subject of another assay is pBAD in KMS.12.BM cells. As to the kind of experiment: Pim pBAD signaling assay in KMS.12.BM cells (Example B). The assay is classed as cell-based. To be noted: Homo sapiens, 2.5 h incubation, pBAD ELISA. The protocol: KG-1A cells are purchased from ATCC (Manassas, Va.) and KMS.12.BM cells are purchased from NIBIO, JCRB cell bank (Tokyo, Japan) and maintained in the culture mediums recommended, RPMI, 10% FBS and IMDM 20% FBS (Mediatech, Manassas, Va.) respectively. To measure the pBAD inhibitory activity of the compounds, both cell lines are plated with the culture medium (1×10^6/well/100 μL for KG1A and 4×10^5 cells/well/in 100 μL for KMS12BM) into 96-well V bottom polypropylene plates (Matrix, Thermo Fisher, USA) and incubated 30 min. at 37° C. to normalize cell signaling from handling. Test compounds are added at an appropriate concentration range and further incubated for 2.5 h for KMS.12.BM cells and 4 h for KG1-A cells. Plates are centrifuged at 2000 RPM for 10 min. and supernatants aspirated. 100 μL lysis buffer with protease inhibitors (Cell Signaling Technologies, Danver, Mass., Sigma, St Louis Mo., EMD, USA) is added to the pellets, mixed well and set on ice for 30 min. Lysates are frozen overnight at −80° C. To measure the pBAD activity, a Cell Signaling ELISA kit (Cell Signaling Path Scan phosphor pBAD ELISA) is utilized. 50 μL of the lysate is tested per the ELISA protocol and the data analysis is performed by software on a SpectrMax5 plate reader (Molecular Devices, Sunnyvale, Calif.). IC50 determination is performed by fitting the curve of percent inhibition versus the log of the inhibitor concentration using the GraphPad Prism 5.0 software.

A further assay concerns the target Pim-2 (Homo sapiens (Human), UniProt Q9P1W9). As to the kind of experiment: Pim-2 kinase assay (Pim enzyme assays, Example A). The assay is classed as biochemical. Conditions: 1 mM ATP, CREBtide peptide substrate; read-out: PIM2 IC50. On the procedure:
Pim-2 kinase assay-20 μL reactions were run in white 384 well polystyrene plates dotted with 0.8 μL compound/DMSO in the assay buffer (50 mM Tris, pH 7.5, 0.01% Tween-20, 5 mM mgCl2, 0.01% BSA, 5 mM DTT), containing 0.05 μM Fluorescein-labeled CREBtide peptide substrate (Invitrogen PV3508), 1 mM ATP, and 1 nM enzyme (Invitrogen PV3649) for 2 h at 25° C. Reactions were stopped by addition of 10 μL TR-FRET Dilution Buffer (Invitrogen PV3574) with 30 mM EDTA and 1.5 nM LanthaScreen Tb-CREB pSer133 antibody (Invitrogen PV3566). After 30 min. incubation at room temperature, plates were read on a PHERAstar FS plate reader (BMG Labtech).

Another assay deals with Pim-3 (Homo sapiens (Human), UniProt Q86V86). The assay is described as follows: Pim-3 kinase assay (Pim enzyme assays, Example A). To be noted: 1 mM ATP, BAD peptide substrate; read-out: PIM3 IC50. It counts as biochemical. On the procedure:
as §1

15 compounds from patent US9580418B2, “Bicyclic aromatic carboxamide compounds useful as Pim kinase inhibitors” (Incyte Corporation, priority 2014, dated 2017) can be followed below.

pIC50: −log10 of the molar value. Where only a bound is given, the exact number is not on record here.

Sequence of Pim-2 (Q9P1W9 whole entry): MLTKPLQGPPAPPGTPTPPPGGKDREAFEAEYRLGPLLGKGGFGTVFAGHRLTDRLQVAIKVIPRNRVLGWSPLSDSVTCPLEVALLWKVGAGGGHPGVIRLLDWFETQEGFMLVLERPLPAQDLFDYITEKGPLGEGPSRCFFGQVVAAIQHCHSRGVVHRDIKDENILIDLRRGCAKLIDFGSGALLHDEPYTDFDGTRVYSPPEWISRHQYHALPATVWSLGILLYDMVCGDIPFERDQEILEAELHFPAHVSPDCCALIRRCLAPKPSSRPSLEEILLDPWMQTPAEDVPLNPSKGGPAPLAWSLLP

Regarding `COc1ccc(-c2ccc3ccc(C(=O)Nc4cnccc4N4C[C@@H](N)[C@H](O)[C@@H](C)C4)nc3c2)cn1` [Example 45, N-{4-[(3R,4R,5S)-3-Amino-4-hydroxy-5-methylpiperidin-1-yl]pyridin-3-yl}-7-(6-methoxypyridin-3-yl)quinoline-2-carboxamide], the pIC50 on Pim-1 is at least 8.00; in the assay with pBAD in KMS.12.BM cells, at least 7.30; at Pim-2, at least 7.00; on Pim-3, at least 8.00.
Consider `C[C@H]1CN(c2ccncc2NC(=O)c2ccc3ccc(-c4cnn(C)c4)cc3n2)C[C@@H](N)[C@@H]1O` [Example 43, N-{4-[(3R,4R,5S)-3-Amino-4-hydroxy-5-methylpiperidin-1-yl]pyridin-3-yl}-7-(1-methyl-1H-pyrazol-4-yl)quinoline-2-carboxamide], for which the pIC50 at Pim-1 is at least 8.00; in the assay with pBAD in KMS.12.BM cells it was at least 7.30; at Pim-2, at least 7.00; on Pim-3, at least 8.00.
On to `N[C@@H]1CN(c2ccncc2NC(=O)c2ccc3ncc(-c4ccc(N5CCOCC5)nc4)cc3n2)C[C@H](C2CC2)[C@H]1O` [Example 37, N-{4-[(3R,4R,5S)-3-Amino-5-cyclopropyl-4-hydroxypiperidin-1-yl]pyridin-3-yl}-7-(6-morpholin-4-ylpyridin-3-yl)-1,5-naphthyridine-2-carboxamide], for which the pIC50 on Pim-1 was at least 8.00; with pBAD in KMS.12.BM cells, at least 7.30; on Pim-2 it was at least 7.00; on Pim-3, at least 8.00.
With `C[C@H]1CN(c2ccncc2NC(=O)c2ccc3ccc(N4CCCC4)cc3n2)C[C@@H](N)[C@@H]1O` [Example 30, N-{4-[(3R,4R,5S)-3-Amino-4-hydroxy-5-methylpiperidin-1-yl]pyridin-3-yl}-7-pyrrolidin-1-ylquinoline-2-carboxamide], the pIC50 on Pim-1 was at least 8.00; in the assay on pBAD in KMS.12.BM cells, 6.60 to 7.30; at Pim-2, at least 7.00; at Pim-3, at least 8.00.
`CCn1cc(-c2ccc3ccc(C(=O)Nc4cnccc4N4C[C@@H](N)[C@H](O)[C@@H](C)C4)nc3c2)cn1` [Example 44, N-{4-[(3R,4R,5S)-3-Amino-4-hydroxy-5-methylpiperidin-1-yl]pyridin-3-yl}-7-(1-ethyl-1H-pyrazol-4-yl)quinoline-2-carboxamide]: the pIC50 is at least 8.00 at Pim-1, at least 7.30 in the assay with pBAD in KMS.12.BM cells, at least 7.00 at Pim-2 and at least 8.00 on Pim-3.
Consider `COc1ccc(-c2cnc3ccc(C(=O)Nc4cnccc4N4C[C@@H](N)[C@H](O)[C@@H](C5CC5)C4)nc3c2)cn1` [Example 36, N-{4-[(3R,4R,5S)-3-Amino-5-cyclopropyl-4-hydroxypiperidin-1-yl]pyridin-3-yl}-7-(6-methoxypyridin-3-yl)-1,5-naphthyridine-2-carboxamide], for which the pIC50 on Pim-1 was at least 8.00; with pBAD in KMS.12.BM cells it was at least 7.30; on Pim-2, at least 7.00; on Pim-3 it was at least 8.00.
Turning to `C[C@@H]1C[C@H](N)CN(c2ccncc2NC(=O)c2ccc3ncc(-c4c(F)cccc4F)cc3n2)C1` [Example 1, N-{4-[(3S,5R)-3-Amino-5-methylpiperidin-1-yl]pyridin-3-yl}-7-(2,6-difluorophenyl)-1,5-naphthyridine-2-carboxamide], the pIC50 on Pim-1 was at least 8.00; in the assay on pBAD in KMS.12.BM cells, at least 7.30; at Pim-2 it was at least 7.00; at Pim-3, at least 8.00.
On to `COc1cc(F)c(-c2cnc3ccc(C(=O)Nc4cnccc4N4C[C@@H](N)[C@H](O)[C@@H](C5CC5)C4)nc3c2)c(F)c1` [Example 35, N-{4-[(3R,4R,5S)-3-Amino-5-cyclopropyl-4-hydroxypiperidin-1-yl]pyridin-3-yl}-7-(2,6-difluoro-4-methoxyphenyl)-1,5-naphthyridine-2-carboxamide], for which the pIC50 at Pim-1 was at least 8.00; in the assay on pBAD in KMS.12.BM cells, at least 7.30; at Pim-2, at least 7.00; at Pim-3 it was at least 8.00.
On to `C[C@@H]1C[C@H](N)CN(c2ccncc2NC(=O)c2ccc3ccc(N4CCC(O)CC4)cc3n2)C1` [Example 50, N-(4-((3S,5R)-3-Amino-5-methylpiperidin-1-yl)pyridin-3-yl)-7-(4-hydroxypiperidin-1-yl)quinoline-2-carboxamide], for which the pIC50 on Pim-1 is at least 8.00; with pBAD in KMS.12.BM cells, at least 7.30; at Pim-2, at least 7.00; on Pim-3, at least 8.00.
Consider `C[C@H]1CN(c2ccncc2NC(=O)c2ccc3ccc(N4CCC(C#N)CC4)cc3n2)C[C@@H](N)[C@@H]1O` [Example 16, N-{4-[(3R,4R,5S)-3-Amino-4-hydroxy-5-methylpiperidin-1-yl]pyridin-3-yl}-7-(4-cyanopiperidin-1-yl)quinoline-2-carboxamide], for which the pIC50 is at least 8.00 on Pim-1, at least 7.30 in the assay with pBAD in KMS.12.BM cells, at least 7.00 on Pim-2 and at least 8.00 at Pim-3.
With `C[C@@H]1C[C@H](N)CN(c2ccncc2NC(=O)c2ccc3ccc(N4CCCC4)cc3n2)C1` [Example 31, N-{4-[(3S,5R)-3-Amino-5-methylpiperidin-1-yl]pyridin-3-yl}-7-pyrrolidin-1-ylquinoline-2-carboxamide], the pIC50 was at least 8.00 at Pim-1, 6.60 to 7.30 with pBAD in KMS.12.BM cells, 6.00 to 7.00 at Pim-2 and at least 8.00 on Pim-3.
Consider `C[C@H]1CN(c2ccncc2NC(=O)c2ccc3ccc(N4CCC(c5ccncc5)CC4)cc3n2)C[C@@H](N)[C@@H]1O` [Example 20, N-{4-[(3R,4R,5S)-3-Amino-4-hydroxy-5-methylpiperidin-1-yl]pyridin-3-yl}-7-(4-pyridin-4-ylpiperidin-1-yl)quinoline-2-carboxamide], for which the pIC50 was at least 8.00 on Pim-1, 6.60 to 7.30 with pBAD in KMS.12.BM cells, at least 7.00 at Pim-2 and at least 8.00 at Pim-3.
Regarding `N#Cc1ccccc1-c1cnc2ccc(C(=O)Nc3cnccc3N3C[C@@H](N)C[C@@H](C(F)(F)F)C3)nc2c1` [Example 51, N-{4-[(3S,5R)-3-Amino-5-(trifluoromethyl)piperidin-1-yl]pyridin-3-yl}-7-(2-cyanophenyl)-1,5-naphthyridine-2-carboxamide], the pIC50 on Pim-1 is at least 8.00; with pBAD in KMS.12.BM cells, at least 7.30; at Pim-2 it was at least 7.00; on Pim-3, at least 8.00.
Turning to `COC1CCN(c2ccc3ccc(C(=O)Nc4cnccc4N4C[C@@H](N)[C@H](O)[C@@H](C)C4)nc3c2)CC1` [Example 24, N-{4-[(3R,4R,5S)-3-Amino-4-hydroxy-5-methylpiperidin-1-yl]pyridin-3-yl}-7-(4-methoxypiperidin-1-yl)quinoline-2-carboxamide], the pIC50 on Pim-1 is at least 8.00; in the assay with pBAD in KMS.12.BM cells, at least 7.30; at Pim-2, at least 7.00; at Pim-3 it was at least 8.00.
Take `Cn1cc(-c2cnc3ccc(C(=O)Nc4cnccc4N4C[C@@H](N)[C@H](O)[C@@H](C5CC5)C4)nc3c2)cn1` [Example 39, N-{4-[(3R,4R,5S)-3-Amino-5-cyclopropyl-4-hydroxypiperidin-1-yl]pyridin-3-yl}-7-(1-methyl-1H-pyrazol-4-yl)-1,5-naphthyridine-2-carboxamide]: the pIC50 on Pim-1 was at least 8.00; with pBAD in KMS.12.BM cells, 6.60 to 7.30; at Pim-2, at least 7.00; at Pim-3, at least 8.00.
